Reference: US9695155B2, “Herbicidal substituted pyrimidinyloxy benzene compounds” (E. I. DU PONT DE NEMOURS AND COMPANY, priority 2013, dated 2017)

Experiments:
[1] = system: cocklebur; experiment: Test E preemergence; type: in vivo, Xanthium strumarium; conditions: for Cocklebur plant response rating: scale 0 to 100 (0 no effect, 100 complete control); for Plant response rating, Cocklebur: scale 0 to 100, 0 no effect, 100 complete control
From the text: Seeds of plant species selected from corn (Zea mays), soybean (Glycine max), velvetleaf (Abutilon theophrasti), lambsquarters (Chenopodium album), wild poinsettia (Euphorbia heterophylla), palmer pigweed (Amaranthus palmeri), waterhemp (common waterhemp, Amaranthus rudis), surinam grass (Brachiaria decumbens), large (Lg) crabgrass (Digitaria sanguinalis), Brazilian crabgrass (Digitaria horizontalis), fall panicum (Panicum dichotomiflorum), giant foxtail (Setaria faberii), green foxtail (Setaria viridis), goosegrass (Eleusine indica), johnsongrass (Sorghum halepense), ragweed (common ragweed, Ambrosia elatior), barnyardgrass (Echinochloa crus-galli), sandbur (southern sandbur, Cenchrus echinatus), arrowleaf sida (Sida rhombifolia), Italian ryegrass (Lolium multiflorum), dayflower (Virginia (VA) dayflower, Commelina virginica), field bindweed (Convolvulus arvensis), morningglory (Ipomoea coccinea), nightshade (eastern black nightshade, Solanum ptycanthum), kochia (Kochia scoparia), yellow nutsedge (Cyperus esculentus), cocklebur (common cocklebur, Xanthium strumarium), smartweed (ladysthumb smartweed, and hairy beggarticks (Bidens pilosa), were planted into a silt loam soil and treated preemergence with test chemicals formulated in a non-phytotoxic solvent mixture which included a surfactant.
At the same time, plants from these crop and weed species and also horseweed (Canada horseweed, Conyza canadensis), waterhemp_RES1, (ALS & Triazine resistant common waterhemp, Amaranthus rudis), and waterhemp_RES2, (ALS & HPPD resistant common waterhemp, Amaranthus rudis) were planted in pots containing Redi-Earth® planting medium (Scotts Company, 14111 Scottslawn Road, Marysville, Ohio 43041) comprising spaghnum peat moss, vermiculite, wetting agent and starter nutrients were treated with postemergence applications of test chemicals formulated in the same manner. Plants ranged in height from 2 to 18 cm for postemergence treatments (1- to 4-leaf stage). Treated plants and controls were maintained in a greenhouse for 14 to 21 days, after which time all species were compared to controls and visually evaluated. Plant response ratings, summarized in Table E, are based on a scale of 0 to 100 where 0 is no effect and 100 is complete control. A dash (-) response means no test result.

[2] = system: chamomile; experiment: Test D preemergence; type: in vivo, Matricaria inodora; conditions: Tripleurospermum inodorum, pre-emergence, scale 0-100, read-out: Plant response rating, Chamomile
Procedure, shortened: (§1)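 Values are 0–100 visual control ratings (0 none, 100 complete) given 7–21 days after application. Soil for preemergence was silt loam; postemergence plants stood 2–18 cm tall.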

[3] = system: bromegrass, downy; experiment: Test D preemergence; type: in vivo, Bromus tectorum; conditions: Bromus tectorum, pre-emergence, scale 0-100, read-out: Plant response rating, Bromegrass, Downy
From the text: (§2) Seeds of plant species selected from bluegrass (annual bluegrass, Poa annua), blackgrass (Alopecurus myosuroides), canarygrass (littleseed canarygrass, Phalaris minor), chickweed (common chickweed, Stellaria media), galium (catchweed bedstraw, Galium aparine), bromegrass, downy (downy bromegrass, Bromus tectorum), field poppy (Papaver rhoeas), field violet (Viola arvensis), green foxtail (Setaria viridis), deadnettle (henbit deadnettle, Lamium amplexicaule), Italian ryegrass (Lolium multiflorum), kochia (Kochia scoparia), lambsquarters (Chenopodium album), oilseed rape (Brassica napus), pigweed (Amaranthus retroflexus), chamomile (scentless chamomile, Matricaria inodora), Russian thistle (Salsola kali), speedwell (bird's-eye speedwell, Veronica persica), spring barley (Hordeum vulgare), spring wheat (Triticum aestivum), wild buckwheat (Polygonum convolvulus), wild mustard (Sinapis arvensis), wild oat (Avena fatua), wild radish (Raphanus raphanistrum), windgrass (Apera spica-venti), winter barley (Hordeum vulgare), and winter wheat (Triticum aestivum) were planted into a silt loam soil and treated preemergence with test chemicals formulated in a non-phytotoxic solvent mixture which included a surfactant.
(§3) At the same time, these species were planted in pots containing Redi-Earth® planting medium (Scotts Company, 14111 Scottslawn Road, Marysville, Ohio 43041) comprising spaghnum peat moss, vermiculite, wetting agent and starter nutrients and treated with postemergence applications of the test chemicals formulated in the same manner. Plants ranged in height from 2 to 18 cm (1- to 4-leaf stage). Treated plants and controls were maintained in a controlled growth environment for 7 to 21 days after which time all species were compared to controls and visually evaluated. Plant response ratings, summarized in Table D, are based on a scale of 0 to 100 where 0 is no effect and 100 is complete control. A dash (-) response means no test result.

[4] = system: winter barley; experiment: Test D preemergence; type: in vivo, Hordeum vulgare; conditions: Hordeum vulgare, pre-emergence, scale 0-100, read-out: Plant response rating, Barley, Winter
Procedure, shortened: as §1

[5] = system: field poppy; experiment: Test D preemergence; type: in vivo, Papaver rhoeas; conditions: Papaver rhoeas, pre-emergence, scale 0-100, read-out: Plant response rating, Field Poppy
Procedure, shortened: as §1

[6] = system: bluegrass; experiment: Test D postemergence; type: in vivo, Poa annua; conditions: Poa annua, post-emergence, Postemergence, scale 0 to 100 (0 no effect, 100 complete control), read-out: Plant response rating, Bluegrass
From the text: as §2, §3

## N#Cc1cccc(Oc2ncc(Cl)cn2)c1-n1cc(Cl)cn1 [Compound 72]
[1]; 16 g ai/ha
  Cocklebur plant response rating: 0
[1]; 125 g ai/ha
  Plant response rating, Cocklebur: 0
[1]; 250 g ai/ha
  Plant response rating, Cocklebur: 15

## N#Cc1cnn(-c2c(C#N)cccc2Oc2ncc(Cl)cn2)c1 [Compound 200]
[1]; 16 g ai/ha
  Cocklebur plant response rating: 0
[1]; 31 g ai/ha
  Cocklebur plant response rating: 0
[1]; 125 g ai/ha
  Plant response rating, Cocklebur: 75
[1]; 250 g ai/ha
  Plant response rating, Cocklebur: 95

## N#Cc1cccc(Oc2ncc(Cl)cn2)c1-n1cc(Br)cn1 [Compound 52, 2-(4-bromo-1H-pyrazol-1-yl)-3-[(5-chloro-2-pyrimidinyl)oxy]benzonitrile]
[2]; 31 g ai/ha
  pest or weed control at 31 g/ha: 15%
[2]; 62 g ai/ha
  pest or weed control at 62 g/ha: 65%
[2]; 125 g ai/ha
  pest or weed control at 125 g/ha: 60%
[2]; 250 g ai/ha
  pest or weed control at 250 g/ha: 80%
[3]; 31 g ai/ha
  pest or weed control at 31 g/ha: 0%
[3]; 62 g ai/ha
  pest or weed control at 62 g/ha: 0%
[3]; 125 g ai/ha
  pest or weed control at 125 g/ha: 0%
[3]; 250 g ai/ha
  pest or weed control at 250 g/ha: 0%
[4]; 31 g ai/ha
  plant injury at 31 g/ha: 0%
[4]; 62 g ai/ha
  plant injury at 62 g/ha: 0%
[4]; 125 g ai/ha
  plant injury at 125 g/ha: 5%
[4]; 250 g ai/ha
  plant injury at 250 g/ha: 35%
[1]; 16 g ai/ha
  Cocklebur plant response rating: 0
[1]; 31 g ai/ha
  Cocklebur plant response rating: 0
[1]; 62 g ai/ha
  Cocklebur plant response rating: 0
[1]; 250 g ai/ha
  Plant response rating, Cocklebur: 25
[5]; 31 g ai/ha
  pest or weed control at 31 g/ha: 95%
[5]; 62 g ai/ha
  pest or weed control at 62 g/ha: 80%
[5]; 125 g ai/ha
  pest or weed control at 125 g/ha: 90%
[5]; 250 g ai/ha
  pest or weed control at 250 g/ha: 100%
[6]; 31 g ai/ha
  pest or weed control at 31 g/ha: 15%
[6]; 62 g ai/ha
  pest or weed control at 62 g/ha: 20%
[6]; 125 g ai/ha
  pest or weed control at 125 g/ha: 15%
[6]; 250 g ai/ha
  pest or weed control at 250 g/ha: 25%
